The text below walks through data of ChEMBL document CHEMBL5223092, “Antibacterial activities of plant-derived xanthones” (RSC Med Chem, 2022).

Usually MIC stands for the least concentration at which growth counts as inhibited. A high value points to a less susceptible organism. As a reminder, the logP is a log measure of how a compound divides between an organic and an aqueous phase. Higher therefore signals higher lipophilicity.

For data set [1], the system named is Escherichia coli. Description: Antibacterial activity against Escherichia coli TISTR 780 incubated for 16 to 18 hrs by Mueller-Hinton broth based two-fold serial dilution method. Type of data set: functional. The following applies: time 16-18 hrs.
The subject of data set [2] is Bacillus cereus. Put plainly: Antibacterial activity against Bacillus cereus TISTR 688 incubated for 16 to 18 hrs by Mueller-Hinton broth based two-fold serial dilution method. The note with it: time 16-18 hrs. Type of data set: functional.
For data set [3], the system named is Micrococcus luteus. Put plainly: Antibacterial activity against Micrococcus luteus TISTR 1466 incubated for 16 to 18 hrs by Mueller-Hinton broth based two-fold serial dilution method. Type of data set: functional. The following applies: time 16-18 hrs.
Data set [4] relates to Pseudomonas aeruginosa. Description: Antibacterial activity against Pseudomonas aeruginosa TISTR 781 incubated for 16 to 18 hrs by Mueller-Hinton broth based two-fold serial dilution method. Type of data set: functional. The note with it: time 16-18 hrs.
Data set [5] deals with Staphylococcus epidermidis. Put plainly: Antibacterial activity against Staphylococcus epidermidis ATCC 12228 incubated for 16 to 18 hrs by Mueller-Hinton broth based two-fold serial dilution method.
In data set [6] the test system is Salmonella typhimurium. Put plainly: Antibacterial activity against Salmonella typhimurium TISTR 292 incubated for 16 to 18 hrs by Mueller-Hinton broth based two-fold serial dilution method. The class given is functional, Salmonella enterica subsp. enterica serovar Typhimurium. The following applies: Salmonella enterica, time 16-18 hrs.
Data set [7] has as its system Staphylococcus aureus. Put plainly: Antibacterial activity against Staphylococcus aureus NIHJ 209p. Type of data set: functional.
The test system of data set [8] is Staphylococcus aureus. Put plainly: Antibacterial activity against methicillin resistant Staphylococcus aureus by liquid dilution method. Type of data set: functional.
Data set [9] concerns Escherichia coli. Description: Antibacterial activity against Escherichia coli NIHJ K 12. Type of data set: functional.
Data set [10] concerns Enterococcus faecalis. Put plainly: Antibacterial activity against Streptococcus faecalis incubated for 8 to 12 hrs by Alamar blue reagent based microdilution broth method. The following applies: time 8-12 hrs. The class given is functional. On the technique in general: Alamar Blue is a resazurin reagent that responds to reducing activity.
In data set [11] the test system is Salmonella typhi. Put plainly: Antibacterial activity against Salmonella typhi incubated for 8 to 12 hrs by Alamar blue reagent based microdilution broth method. Type of data set: functional, Salmonella enterica subsp. enterica serovar Typhi. The following applies: Salmonella enterica; time 8-12 hrs.
Data set [12] deals with Pseudomonas aeruginosa. Description: Antibacterial activity against Pseudomonas aeruginosa incubated for 8 to 12 hrs by Alamar blue reagent based microdilution broth method. Type of data set: functional. The following applies: time 8-12 hrs.
Data set [13] relates to Bacillus subtilis. Description: Antibacterial activity against Bacillus subtilis incubated for 8 to 12 hrs by Alamar blue reagent based microdilution broth method. The following applies: time 8-12 hrs. Type of data set: functional.
In data set [14] the test system is Staphylococcus aureus. Description: Antibacterial activity against Staphylococcus aureus TISTR 517 incubated for 8 to 12 hrs by Alamar blue reagent based microdilution broth method. The following applies: time 8-12 hrs. Type of data set: functional.
A short description of data set [15]: Lipophilicity, logP of the compound. Type of data set: physicochemical. The note with it: octanol/water.
In data set [16] the test system is Staphylococcus aureus. Put plainly: Antibacterial activity against Staphylococcus aureus. The class given is functional.
Data set [17] relates to Bacillus subtilis. Put plainly: Antibacterial activity against Bacillus subtilis TISTR 008 by Mueller-Hinton broth based two-fold serial dilution method. Type of data set: functional.
In data set [18] the test system is Staphylococcus epidermidis. Description: Antibacterial activity against Staphylococcus epidermis ATCC 12228 by Mueller-Hinton broth based two-fold serial dilution method. The class given is functional.
The test system of data set [19] is Micrococcus luteus. Put plainly: Antibacterial activity against Micrococcus luteus TISTR 884 by Mueller-Hinton broth based two-fold serial dilution method. The class given is functional.
Data set [20] concerns Micrococcus luteus. Description: Antibacterial activity against Micrococcus luteus. Type of data set: functional.
The test system of data set [21] is Listeria monocytogenes. Put plainly: Antibacterial activity against Listeria monocytogenes DMST 17303 by Mueller-Hinton broth based two-fold serial dilution method. Type of data set: functional.
The subject of data set [22] is Staphylococcus epidermidis. Description: Antibacterial activity against Staphylococcus epidermidis DMST 15505 by Mueller-Hinton broth based two-fold serial dilution method. The class given is functional.
Data set [23] concerns Escherichia coli. Description: Antibacterial activity against Escherichia coli ATCC 25922 by Mueller-Hinton broth based two-fold serial dilution method. The class given is functional.
Data set [24] has as its system Streptococcus pyogenes. Put plainly: Antibacterial activity against Streptococcus pyogenes DMST 17020 by Mueller-Hinton broth based two-fold serial dilution method. Type of data set: functional.
Data set [25] has as its system Staphylococcus aureus. Description: Antibacterial activity against methicillin resistant Staphylococcus aureus SK1 incubated for 16 to 18 hrs by agar microdilution method. The class given is functional. The note with it: time 16-18 hrs.
Data set [26] relates to Staphylococcus aureus. Description: Antibacterial activity against Staphylococcus aureus TISTR 517 by Mueller-Hinton broth based two-fold serial dilution method. The class given is functional.
In data set [27] the test system is Bacillus cereus. Put plainly: Antibacterial activity against Bacillus cereus. Type of data set: functional.
Data set [28] concerns Bacillus subtilis. Description: Antibacterial activity against Bacillus subtilis. The class given is functional.
Data set [29] relates to Staphylococcus aureus. Put plainly: Antibacterial activity against methicillin resistant Staphylococcus aureus. Type of data set: functional.
Data set [30] concerns Vibrio harveyi. Description: Antibacterial activity against Vibrio harveyi 1.8690 incubated for 24 hrs by oxford cup method. Type of data set: functional.
The subject of data set [31] is Vibrio harveyi. Description: Antibacterial activity against Vibrio harveyi SZ-1 incubated for 24 hrs by oxford cup method. The class given is functional.

In brackets after ≈: the same amount, converted by molar mass. Some results are limits rather than exact numbers.

Take `CC1(C)CC(O)Oc2cc(O)c3c(=O)c4cccc(O)c4oc3c21` (stereo unspecified): the MIC in data set [1] is 32 mg/L (≈ 97.5 µM); in [2], 32 mg/L (≈ 97.5 µM); in data set [3], 16 mg/L (≈ 48.7 µM); in [4], 16 mg/L (≈ 48.7 µM); in [5] it was 16 mg/L (≈ 48.7 µM); in data set [6], 32 mg/L (≈ 97.5 µM).

For the compound `C=CC(C)(C)c1cc(O)c2oc3c(O)c(O)ccc3c(=O)c2c1O`, the MIC in data set [7] was found to be 12.5 mg/L (≈ 38.1 µM); in data set [8], 25 mg/L (≈ 76.1 µM); in [9], 25 mg/L (≈ 76.1 µM).

Take `CC(C)=CCC/C(C)=C/Cc1c2c(c3oc4c(O)cccc4c(=O)c3c1O)C=CC(C)(C)O2`: the MIC is 18.7 mg/L (≈ 41.9 µM) in [10]; 4.6 mg/L (≈ 10.3 µM) in data set [11]; over 50 mg/L in [12]; 4.6 mg/L (≈ 10.3 µM) in data set [13]; 2.3 mg/L (≈ 5.15 µM) in data set [14].

`COc1cc2c(=O)c3c(O)cc(O)cc3oc2cc1O` [ALLOATHYRIOL] yielded a logP in data set [15] of 1.74. In [6], this compound displayed an MIC of 4 mg/L (≈ 14.6 µM).

`COc1c(O)cc2oc3cc(O)cc(O)c3c(=O)c2c1C/C=C(\C)CCC=C(C)C` [RUBRAXANTHONE]: the MIC is 12 mg/L (≈ 29.2 µM) in data set [16]; 1 mg/L (≈ 2.44 µM) in data set [17]; 4 mg/L (≈ 9.75 µM) in data set [18]; 2 mg/L (≈ 4.87 µM) in data set [19]; 1.25 mg/L (≈ 3.05 µM) in data set [8].

For the compound `COc1c(O)cc2oc3cc4c(c(O)c3c(=O)c2c1CC=C(C)C)CC(C(C)(C)O)O4` (stereo unspecified), the MIC in data set [20] is 12.5 mg/L (≈ 29.3 µM); in [21], 0.78 mg/L (≈ 1.83 µM); in data set [22], 25 mg/L (≈ 58.6 µM); in data set [23], 25 mg/L (≈ 58.6 µM); in data set [24], 3.13 mg/L (≈ 7.34 µM); in [25], 4 mg/L (≈ 9.38 µM). The MIC in data set [26] amounted to 12.5 mg/L (≈ 29.3 µM); in [27] it was 8 mg/L (≈ 18.8 µM); in data set [28] it was 2 mg/L (≈ 4.69 µM).

`C=CC(C)(C)c1c(O)c(CC=C(C)C)c(O)c2c(=O)c3ccc(O)c(O)c3oc12` [GERONTOXANTHONE I]: the minimum inhibitory concentration (MIC) is 6.25 mg/L (≈ 15.8 µM) in data set [20]; 3.13 mg/L (≈ 7.9 µM) in data set [10]; 1.1 mg/L (≈ 2.77 µM) in [11]; over 50 mg/L in data set [12]; 2.5 mg/L (≈ 6.31 µM) in [13]; 3.13 mg/L (≈ 7.9 µM) in [29]. Moreover, the MIC in data set [14] is 1.1 mg/L (≈ 2.77 µM).

On to `COc1cc(O)cc2c1C(=O)c1c(O)cc(C)cc1C2=O` [QUESTIN], for which the MIC in [30] and in data set [31] was under 50 mg/L each time.

For the compound `C=CC(C)(C)c1cc(O)c2oc3c(O)cccc3c(=O)c2c1O`, the MIC in data set [16] was determined as 6.25 mg/L (≈ 20 µM); in data set [29] it was 3.13 mg/L (≈ 10 µM).
